Measurements taken from ChEMBL document CHEMBL1649507, “CMY-29 and CMY-30, two novel plasmid-mediated AmpC beta-lactamases” (2009).
Values after ≈ are worked out from the molar mass of the structure shown.

Columns and labels:
Assay type in all cases: functional
Escherichia coli [1] = assay: Antibacterial activity against Escherichia coli isolate ARL06-39 harboring beta-lactamase CMY 30 by broth microdilution method
Escherichia coli [2] = assay: Antibacterial activity against Escherichia coli isolate ARL04-413 harboring beta-lactamase CMY 2 by broth microdilution method
Escherichia coli [3] = assay: Antibacterial activity against Escherichia coli isolate ARL05-705 harboring beta-lactamase CMY 7 by broth microdilution method
Escherichia coli [4] = assay: Antibacterial activity against Escherichia coli isolate ARL05-909 harboring beta-lactamase CMY 29 by broth microdilution method

Question: For `CO/N=C(\C(=O)N[C@@H]1C(=O)N2C(C(=O)[O-])=C(C[N+]3(C)CCCC3)CS[C@H]12)c1csc(N)n1` [CEFEPIME], which MIC (Escherichia coli [1]) is on record?
Answer: Its MIC is 0.5 µg/mL (≈ 1.04 µM).

Question: And the MIC (Escherichia coli [2])?
Answer: Its MIC is 0.25 µg/mL (≈ 0.52 µM).

Question: What about the MIC (Escherichia coli [3]) of the same compound?
Answer: Its MIC is 0.25 µg/mL (≈ 0.52 µM).

Question: What about the MIC (Escherichia coli [4]) of the same compound?
Answer: The MIC was 1 µg/mL (≈ 2.08 µM).

Question: What does the source list for `CO[C@@]1(NC(=O)Cc2cccs2)C(=O)N2C(C(=O)O)=C(COC(N)=O)CS[C@@H]21` [CEFOXITIN]?
Answer: MIC (Escherichia coli [1]): 128 µg/mL (≈ 299 µM); MIC (Escherichia coli [2]): ≥ 256 µg/mL; MIC (Escherichia coli [3]): 64 µg/mL (≈ 150 µM); MIC (Escherichia coli [4]): ≥ 256 µg/mL

Question: With `CC(C)(O/N=C(\C(=O)N[C@@H]1C(=O)N2C(C(=O)[O-])=C(C[n+]3ccccc3)CS[C@H]12)c1csc(N)n1)C(=O)O` [CEFTAZIDIME] as the compound, how does the MIC (Escherichia coli [1]) read?
Answer: Its MIC is 32 µg/mL (≈ 58.5 µM).

Question: And the MIC (Escherichia coli [2])?
Answer: Its MIC is 64 µg/mL (≈ 117 µM).

Question: And the MIC (Escherichia coli [3])?
Answer: The MIC was 64 µg/mL (≈ 117 µM).

Question: What about the MIC (Escherichia coli [4]) of the same compound?
Answer: Its MIC is no less than 128 µg/mL.

Question: For `CO/N=C(\C(=O)N[C@@H]1C(=O)N2C(C(=O)O)=C(CSc3nc(=O)c(O)nn3C)CS[C@H]12)c1csc(N)n1` [CEFTRIAXONE], which MIC (Escherichia coli [1]) is on record?
Answer: The MIC was 32 µg/mL (≈ 57.7 µM).

Question: What about the MIC (Escherichia coli [2]) of the same compound?
Answer: Its MIC is 32 µg/mL (≈ 57.7 µM).

Question: And the MIC (Escherichia coli [3])?
Answer: The MIC was 32 µg/mL (≈ 57.7 µM).

Question: And the MIC (Escherichia coli [4])?
Answer: The MIC was 128 µg/mL (≈ 231 µM).

Question: With `C[C@@H](O)[C@H]1C(=O)N2C(C(=O)O)=C(SCCNC=N)C[C@H]12` [IMIPENEM ANHYDROUS] as the compound, how does the MIC (Escherichia coli [1]) read?
Answer: The MIC was 0.5 µg/mL (≈ 1.67 µM).

Question: And the MIC (Escherichia coli [2])?
Answer: The MIC was 0.25 µg/mL (≈ 0.835 µM).

Question: What about the MIC (Escherichia coli [3]) of the same compound?
Answer: The MIC was 0.5 µg/mL (≈ 1.67 µM).

Question: What about the MIC (Escherichia coli [4]) of the same compound?
Answer: Its MIC is 0.5 µg/mL (≈ 1.67 µM).

Question: With `C[C@@H](O)[C@H]1C(=O)N2C(C(=O)O)=C(S[C@@H]3CN[C@H](C(=O)N(C)C)C3)[C@H](C)[C@H]12` [MEROPENEM] as the compound, how does the MIC (Escherichia coli [1]) read?
Answer: Its MIC is no more than 0.12 µg/mL.

Question: And the MIC (Escherichia coli [2])?
Answer: The MIC was no more than 0.12 µg/mL.

Question: What about the MIC (Escherichia coli [3]) of the same compound?
Answer: Its MIC is no more than 0.12 µg/mL.

Question: And the MIC (Escherichia coli [4])?
Answer: The MIC was no more than 0.12 µg/mL.
